Assay results published in patent publication US20220054469A1, “FARNESOID X RECEPTOR AGONISTS AND USES THEREOF” (Metacrine, Inc., priority 2018, published 2022).

target: T1, hFXR (Homo sapiens, UniProt Q96RI1); assay: In Vitro FXR Assay (TK); assay type: cell-based; conditions: CV-1 cells transfected with hFXR, hRXR, TK-ECRE-luc and pCMX-YFP; incubated with compound for 18 hrs; luminescence
T1 construct: expressed in transfected cells; host or cells: CV-1 cells
T1 sequence (Q96RI1 1-486): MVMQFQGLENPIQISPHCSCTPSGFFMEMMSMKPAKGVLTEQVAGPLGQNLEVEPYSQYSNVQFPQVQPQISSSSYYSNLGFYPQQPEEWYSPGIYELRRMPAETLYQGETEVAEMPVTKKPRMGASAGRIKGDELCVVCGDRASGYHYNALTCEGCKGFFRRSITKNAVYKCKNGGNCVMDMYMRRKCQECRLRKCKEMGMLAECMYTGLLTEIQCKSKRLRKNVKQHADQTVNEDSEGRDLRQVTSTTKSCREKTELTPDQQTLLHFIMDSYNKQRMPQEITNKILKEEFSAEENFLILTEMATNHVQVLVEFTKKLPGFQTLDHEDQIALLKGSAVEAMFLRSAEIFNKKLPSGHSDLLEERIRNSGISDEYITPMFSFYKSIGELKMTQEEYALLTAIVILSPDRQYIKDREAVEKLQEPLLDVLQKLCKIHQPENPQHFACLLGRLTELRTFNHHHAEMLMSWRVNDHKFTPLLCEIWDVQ
T1 sequence (P19793 1-462 partner): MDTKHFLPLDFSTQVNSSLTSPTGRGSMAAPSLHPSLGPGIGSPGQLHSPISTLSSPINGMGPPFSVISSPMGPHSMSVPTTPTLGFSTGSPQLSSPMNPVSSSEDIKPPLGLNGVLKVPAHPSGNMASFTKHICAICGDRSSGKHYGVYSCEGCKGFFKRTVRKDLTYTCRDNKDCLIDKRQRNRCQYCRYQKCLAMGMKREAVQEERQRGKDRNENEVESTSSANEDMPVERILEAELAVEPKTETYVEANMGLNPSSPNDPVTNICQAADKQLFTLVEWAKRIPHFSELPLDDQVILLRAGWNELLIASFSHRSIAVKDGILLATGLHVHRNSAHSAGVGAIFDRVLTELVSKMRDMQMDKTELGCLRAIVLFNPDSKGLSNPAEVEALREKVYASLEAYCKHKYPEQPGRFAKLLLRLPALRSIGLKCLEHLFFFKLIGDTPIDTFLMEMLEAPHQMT
Protocol: Example B-1: In Vitro FXR Assay (TK)
CV-1 cells were seeded at a density of 2,000,000 cells in a T175 flask with DMEM+10% charcoal double-stripped FBS and incubated at 37° C. in 5% CO2 for 18 h (O/N).
After 18 h of incubation, the medium in the T175 flask was changed with fresh DMEM+10% charcoal super-stripped serum. In a polypropylene tube, 2500 μL OptiMEM (Life Technologies, Cat #31985-062) was combined with expression plasmids for hFXR, hRXR, TK-ECRE-luc and pCMX-YFP. The tube was then briefly vortexed and incubated at room temperature for 5 minutes. Transfection reagent (X-tremeGENE HP from Roche, Cat #06 366 236 001) was added to the OptiMEM/plasmid mixture vortexed and incubated at room temperature for 20 minutes. Following incubation, the transfection reagent/DNA mixture complex was added to cells in the T175 flask and the cells were incubated at 37° C. in 5% CO2 for 18 h (O/N).
Compounds were serially diluted in DMSO and added to transfected CV-1 cells. The cells were then incubated for 18 hrs. The next day cells were lysed and examined for luminescence.

Row | SMILES | EC50
1 | COc1ccc(C23CCC(CN(c4cc(-c5cnn(C(C)C)c5)c(F)cn4)C(=O)[C@H]4CC[C@H](CC(=O)O)CC4)(CC2)CC3)cc1C [Compound 2.10, trans-2-(4-((5-Fluoro-4-(1-isopropyl-1H-pyrazol-4-yl)pyridin-2-yl)((4-(4-methoxy-3-methylphenyl)bicyclo[2.2.2]octan-1-yl)methyl)carbamoyl)cyclohexyl)acetic acid] | ≤ 50 nM
2 | COc1ccc(C23CCC(CN(c4cccc(-c5cnn(C(C)C)c5)c4)C(=O)[C@H]4CC[C@H](CC(=O)O)CC4)(CC2)CC3)cc1C [Compound 3.02, trans-2-(4-((3-(1-Isopropyl-1H-pyrazol-4-yl)phenyl)((4-(4-methoxy-3-methylphenyl)bicyclo[2.2.2]octan-1-yl)methyl)carbamoyl)cyclohexyl)acetic acid] | ≤ 50 nM
3 | COc1ccc(C23CCC(CN(c4cncc(-c5cnn(C(C)C)c5)c4)C(=O)[C@H]4CC[C@H](CC(=O)O)CC4)(CC2)CC3)cc1C (relative stereo) [Compound 2.11, trans-2-(4-((5-(1-Isopropyl-1H-pyrazol-4-yl)pyridin-3-yl)((4-(4-methoxy-3-methylphenyl)bicyclo[2.2.2]octan-1-yl)methyl)carbamoyl)cyclohexyl)acetic acid] | 50 to 1000 nM
4 | COc1ccc([C@H]2CC[C@H](CN(c3cc(-c4cnn(C(C)(C)C)c4)ccn3)C(=O)[C@H]3CC[C@H](CC(=O)O)CC3)CC2)cc1C [Compound 2.05, 2-(trans-4-((4-(1-(tert-Butyl)-1H-pyrazol-4-yl)pyridin-2-yl)((trans-4-(4-methoxy-3-methylphenyl)cyclohexyl)methyl)carbamoyl)cyclohexyl)acetic acid] | 50 to 1000 nM
5 | COc1ccc(C23CCC(CN(c4ccc(F)c(-c5cnn(C(C)C)c5)c4)C(=O)[C@H]4CC[C@H](CC(=O)O)CC4)(CC2)CC3)cc1C [Compound 2.09, trans-2-(4-((4-Fluoro-3-(1-isopropyl-1H-pyrazol-4-yl)phenyl)((4-(4-methoxy-3-methylphenyl)bicyclo[2.2.2]octan-1-yl)methyl)carbamoyl)cyclohexyl)acetic acid] | ≤ 50 nM
6 | COc1ccc(C23CCC(CN(c4cccc(-c5cnn(C(C)(C)C)c5)c4)C(=O)[C@H]4CC[C@H](CC(=O)O)CC4)(CC2)CC3)cc1C [Compound 2.06, trans-2-(4-((3-(1-(tert-Butyl)-1H-pyrazol-4-yl)phenyl)((4-(4-methoxy-3-methylphenyl)bicyclo[2.2.2]octan-1-yl)methyl)carbamoyl)cyclohexyl)acetic acid] | ≤ 50 nM

Next, values leading:

Row | EC50 | SMILES
7 | 50 to 1000 nM | COc1ccc(C23CCC(CN(c4cc(-c5nc(C(C)C)no5)ccn4)C(=O)[C@H]4CC[C@H](CC(=O)O)CC4)(CC2)CC3)cc1C [Compound 4.20, trans-2-(4-((4-(3-Isopropyl-1,2,4-oxadiazol-5-yl)pyridin-2-yl)((4-(4-methoxy-3-methylphenyl)bicyclo[2.2.2]octan-1-yl)methyl)carbamoyl)cyclohexyl)acetic acid]
8 | ≤ 50 nM | COc1ccc(C23CCC(CN(c4cc(-c5cnc(C(C)C)s5)ccn4)C(=O)[C@H]4CC[C@H](CC(=O)O)CC4)(CC2)CC3)cc1C [Compound 4.16, trans-2-(4-((4-(2-Isopropylthiazol-5-yl)pyridin-2-yl)((4-(4-methoxy-3-methylphenyl)bicyclo[2.2.2]octan-1-yl)methyl)carbamoyl)cyclohexyl)acetic acid]
9 | ≤ 50 nM | COc1ccc(C23CCC(CN(c4cccc(-n5cnc(C6CC6)n5)c4)C(=O)[C@H]4CC[C@H](CC(=O)O)CC4)(CC2)CC3)cc1C [Compound 4.28, trans-2-(4-((3-(3-Cyclopropyl-1H-1,2,4-triazol-1-yl)phenyl)((4-(4-methoxy-3-methylphenyl)bicyclo[2.2.2]octan-1-yl)methyl)carbamoyl)cyclohexyl)acetic acid]
10 | ≤ 50 nM | COc1ccc(C23CCC(CN(c4cc(-c5cnc(C6CC6)s5)ccn4)C(=O)[C@H]4CC[C@H](CC(=O)O)CC4)(CC2)CC3)cc1C [Compound 4.15, trans-2-(4-((4-(2-Cyclopropylthiazol-5-yl)pyridin-2-yl)((4-(4-methoxy-3-methylphenyl)bicyclo[2.2.2]octan-1-yl)methyl)carbamoyl)cyclohexyl)acetic acid]
11 | 50 to 1000 nM | COc1ccc(C23CCC(CN(c4cc(-n5cc(C(C)C)cn5)ccn4)C(=O)[C@H]4CC[C@H](CC(=O)O)CC4)(CC2)CC3)cc1C [Compound 4.22, trans-2-(4-((4-(4-Isopropyl-1H-pyrazol-1-yl)pyridin-2-yl)((4-(4-methoxy-3-methylphenyl)bicyclo[2.2.2]octan-1-yl)methyl)carbamoyl)cyclohexyl)acetic acid]
12 | ≤ 50 nM | COc1ccc(C23CCC(CN(c4cc(-n5cnc(C6CC6)n5)ccn4)C(=O)[C@H]4CC[C@H](CC(=O)O)CC4)(CC2)CC3)cc1C [Compound 4.27, trans-2-(4-((4-(3-Cyclopropyl-1H-1,2,4-triazol-1-yl)pyridin-2-yl)((4-(4-methoxy-3-methylphenyl)bicyclo[2.2.2]octan-1-yl)methyl)carbamoyl)cyclohexyl)acetic acid]
13 | 50 to 1000 nM | COc1ccc(C23CCC(CN(c4ccnc(-c5cnn(C(C)C)c5)c4)C(=O)[C@H]4CC[C@H](CC(=O)O)CC4)(CC2)CC3)cc1C (relative stereo) [Compound 4.05, trans-2-(4-((2-(1-Isopropyl-1H-pyrazol-4-yl)pyridin-4-yl)((4-(4-methoxy-3-methylphenyl)bicyclo[2.2.2]octan-1-yl)methyl)carbamoyl)cyclohexyl)acetic acid]
14 | ≤ 50 nM | COc1ccc(C23CCC(CN(c4cccc(-c5cnn(C(C)C)c5)n4)C(=O)[C@H]4CC[C@H](CC(=O)O)CC4)(CC2)CC3)cc1C (relative stereo) [Compound 4.06, trans-2-(4-((6-(1-Isopropyl-1H-pyrazol-4-yl)pyridin-2-yl)((4-(4-methoxy-3-methylphenyl)bicyclo[2.2.2]octan-1-yl)methyl)carbamoyl)cyclohexyl)acetic acid]
15 | 50 to 1000 nM | COc1ccc(C23CCC(CN(c4cccc(-c5nnc(C6CC6)o5)c4)C(=O)[C@H]4CC[C@H](CC(=O)O)CC4)(CC2)CC3)cc1C [Compound 4.30, trans-2-(-4-((3-(5-Cyclopropyl-1,3,4-oxadiazol-2-yl)phenyl)((4-(4-methoxy-3-methylphenyl)bicyclo[2.2.2]octan-1-yl)methyl)carbamoyl)cyclohexyl)acetic acid]
16 | 50 to 1000 nM | COc1ccc(C23CCC(CN(c4cc(-n5cnc(C(C)C)n5)ccn4)C(=O)[C@H]4CC[C@H](CC(=O)O)CC4)(CC2)CC3)cc1C [Compound 4.26, trans-2-(4-((4-(3-Isopropyl-1H-1,2,4-triazol-1-yl)pyridin-2-yl)((4-(4-methoxy-3-methylphenyl)bicyclo[2.2.2]octan-1-yl)methyl)carbamoyl)cyclohexyl)acetic acid]
17 | 50 to 1000 nM | COc1ccc(C23CCC(CN(c4cc(-c5cnn(C(C)C)c5)ccn4)C(=O)[C@H]4CC[C@@H](CC(=O)O)CC4)(CC2)CC3)cc1C [Compound 5.02, cis-2-(4-((4-(1-Isopropyl-1H-pyrazol-4-yl)pyridin-2-yl)((4-(4-methoxy-3-methylphenyl)bicyclo[2.2.2]octan-1-yl)methyl)carbamoyl)cyclohexyl)acetic acid]
18 | ≤ 50 nM | COc1ncc(C23CCC(CN(c4cc(-c5cnn(C(C)(C)C)c5)ccn4)C(=O)[C@H]4CC[C@H](CC(=O)O)CC4)(CC2)CC3)cc1C [Compound 4.13, trans-2-(4-((4-(1-(tert-Butyl)-1H-pyrazol-4-yl)pyridin-2-yl)((4-(6-methoxy-5-methylpyridin-3-yl)bicyclo[2.2.2]octan-1-yl)methyl)carbamoyl)cyclohexyl)acetic acid]
19 | ≤ 50 nM | COc1ccc(C23CCC(CN(c4cc(-c5cnc(C(C)(C)C)s5)ccn4)C(=O)[C@H]4CC[C@H](CC(=O)O)CC4)(CC2)CC3)cc1C [Compound 4.17, trans-2-(4-((4-(2-(tert-Butyl)thiazol-5-yl)pyridin-2-yl)((4-(4-methoxy-3-methylphenyl)bicyclo[2.2.2]octan-1-yl)methyl)carbamoyl)cyclohexyl)acetic acid]
